Experimental data: patent US4273923A, “Process for preparing aminoglycoside derivatives” (Shionogi & Co., Ltd., priority 1979, dated 1981)
In brackets after ≈: the same amount, converted by molar mass.

Tested on: Staphylococcus epidermidis TB-172
Experiment: MIC by agar dilution method
Type: cell-based
Conditions: TB172, tobramycin resistant strain, innoculum size 10^4 CFU/ml, 37° C., 18 to 20 hours, read-out: Minimum Inhibitory Concentration (MIC)

| SMILES | MIC [µg/mL] |
| --- | --- |
| NC[C@H]1O[C@H](O[C@H]2[C@H](O)[C@@H](O[C@H]3O[C@H](CO)[C@@H](O)[C@H](N)[C@H]3O)[C@H](N)C[C@@H]2N)[C@H](N)C[C@@H]1O [TOB, tobramycin] | 25 (≈ 53.5 µM) |
| NCC1=CC[C@@H](N)[C@@H](O[C@H]2[C@H](O)[C@@H](O[C@H]3O[C@H](CO)[C@@H](O)[C@H](N)[C@H]3O)[C@H](N)C[C@@H]2N)O1 [[A], O-[3-amino-3-deoxy-α-D-glucopyranosyl-(1→6)]-O-[2,6-diamino-2,3,4,6-tetradeoxy-α-D-glycero-hex-4-enopyranosyl-(1→4)]-2-deoxy-D-streptamine] | 0.1 (≈ 0.222 µM) |
